Experimental data taken from patent US7319087B2, “Antimicrobial polypeptide from Aspergillus niger” (Novozymes A/S, priority 2001, dated 2008).
No end group written: not given here.

Experiments:
A. niger MBin118 = assay: Growth of transformants expressing the polypeptide in tubes with YPM (2% maltose); assay type: cell-based, Aspergillus niger; details: A. niger MBin118 transformed with expression plasmid, 6 days, 10 ml YPM (2% maltose)
Description: (§1) The A. niger anti-microbial polypeptide was inserted in the Aspergillus expression vector pMT2188 to give pMT2446 (i.e., pMT2188 with an insert comprising the A. niger anti-microbial gene): pMT2446 was transformed into A. oryzae BECh2 (disclosed, e.g., on page 26 of WO 00/39322) and into A. niger MBin118. Thirty transformants of each strain were re-isolated twice under selective and non-inducing conditions on Cove minimal plates with sucrose and acetamide. To test expression of the anti-microbial polypeptide, transformants were grown for 6 days in tubes with 10 ml YPM (2% maltose). Supernatants were run on NuPage 10% Bis-Tris SDS gels with MES running buffer to allow separation in the low mw range.

A. oryzae BECh2 = assay: as above; assay type: cell-based, Aspergillus oryzae; details: A. oryzae BECh2 transformed with expression plasmid, 6 days, 10 ml YPM (2% maltose)
Description: as §1

[1] = A. giganteus peptide, 51 amino acids; Campos-Olivas et al. (1995); cited from earlier work

For “A. niger anti-microbial polypeptide: 58 amino acid mature polypeptide with anti-microbial activity from Aspergillus niger, SEQ ID NO: 2 (positions 1 to 58), expressed from pMT2446 (MQLTSIAIILFAAMGAIANPIAAEADNLVAREAELSKYGGECSVEHNTCTYLKGGKDH; Aspergillus niger)”, the “growth on YPM of host transformants” value (A. niger MBin118) was “seemed to grow normally” and the “growth on YPM of host transformants” value (A. oryzae BECh2) was “seemed inhibited”.

For “A. giganteus anti-fungal polypeptide (AFP): A. giganteus anti-fungal polypeptide (AFP) disclosed in WO 94/01459 (ATYNGKCYKKDNICKYKAQSGKTAICKCYVKKCPRDGAKCEFDSYKGKCYC; UniProt P17737 44-94, looked up)”, the “growth on YPM of host transformants” value (A. niger MBin118) was “Growth was inhibited” and the “growth on YPM of host transformants” value (A. oryzae BECh2) was “Growth was inhibited”.

For “A. giganteus peptide: anti-fungal peptide from Aspergillus giganteus (Nakaya et al. 1990), 51 amino acids, four S-S bridges (ATYNGKCYKKDNICKYKAQSGKTAICKCYVKKCPRDGAKCEFDSYKGKCYC; disulfide (positions not given here); not fully specified (bridges); also: four S-S bridges, pairing not given here; UniProt P17737 44-94, looked up)”, the pl [1] is listed as 9.3.
